Measurements published in PMC2904697, “A Screen for Kinetochore-Microtubule Interaction Inhibitors Identifies Novel Antitubulin Compounds” (PLoS ONE, 2010).

How the values were obtained:
[1] = tested on: MTs assembled from αβ-tubulin; experiment: Depolymerization of non-stabilized MTs in vitro (turbidity at 350 nm); assay type: biochemical; conditions: for Fold difference between concentration inhibiting tubulin polymerization and that needed to disassemble MTs: Fig. 5B versus Fig. 5A
Method: (§1) To quantify the antitubulin activity of compound B, we added 1–50 µmol/l compound B to 10 µmol/l αβ-tubulin. […] For this purpose, MTs were assembled from 10 µmol/l αβ-tubulin; 5 min into the reaction compound B was added in concentrations up to 200 µmol/l. MT depolymerization was tracked as a decrease in turbidity at 350 nm (Fig. 5B).
(§2) Polymerization of 10 µmol/l αβ-tubulin in BRB-80 buffer was monitored turbidimetrically at 350 nm for 15 min in a temperature-controlled spectrophotometer (37°C; SpectraMax Plus^384, Molecular Devices). To probe the effect of a compound on MT stability the molecule was added 5 min after initiation of tubulin assembly. The decrease in protein turbidity (350 nm) resulting from MT depolymerization was followed for 15 min at 37°C [13]. Quantitative comparisons of drug effects on tubulin assembly were also examined in 0.8 M glutamate with a 15 min drug-tubulin preincubation prior to the addition of GTP [14]. Tubulin assembly was monitored for 20 min at 30°C in Beckman DU7400/7500 spectrophotometers, and the compound concentration inhibiting tubulin assembly by 50% was determined.

αβ-tubulin = experiment: Tubulin polymerization tracked turbidimetrically at 350 nm; assay type: biochemical; conditions: for IC50: 10 µmol/l αβ-tubulin, GTP-containing buffer, turbidity 350 nm, read-out: IC50 for inhibition of tubulin polymerization
Method: as §1, §2

taxol-stabilized MTs = experiment: Compound-based depolymerization of taxol-stabilized MTs in vitro; assay type: biochemical, bovine; conditions: compound 50 µmol/l; for Taxol-stabilized MT population depolymerized: taxol (20 µmol/l)-stabilized MTs
Method: To test this hypothesis, we treated HeLa cells with 0.5 µmol/l taxol, thereby arresting them in metaphase with stabilized spindles. […] To quantify the taxol-mediated inhibition of MT disassembly by compound B, we measured in vitro the depolymerization of taxol (20 µmol/l)-stabilized MTs following incubation with 50 µmol/l compound B (the screen condition). Nocodazole and maytansine (both at 50 µmol/l) were included as controls. At 50 µmol/l, compound B depolymerized 3% of the taxol-stabilized MT population, while nocodazole and maytansine depolymerized 11% and 31% of the taxol-treated MTs, respectively (Fig. 4B). […] This finding further supports our hypothesis that the interaction of compound B with the stabilized MTs must have prevented the Ndc80^488 complex from establishing contact with the MT surface.
MTs were polymerized (30 min, 37°C) from a 1∶10 mixture of rhodamine-labeled:unlabeled bovine brain αβ-tubulin (Cytoskeleton) in BRB-80 buffer (80 mmol/l PIPES pH 6.8, 1 mmol/l MgCl2, 1 mmol/l EGTA) and were then stabilized with 20 µmol/l taxol. The Ndc80^488 complex (0.1 µmol/l) was incubated with 100 µmol/l compound (30 min, 24°C) in 96-well polypropylene plates (Eppendorf). The 10,000 compound DIVERset library (Chembridge) and 200 compounds from the Department of Medicinal Chemistry and Technologies, University of Rome La Sapienza were used in the screen. Next, the MTs (100 nmol/l) were added to the compound-Ndc80^488 complex solution in a 1∶1 v/v ratio. After incubation (10 min, 24°C), the reaction mixtures were transferred to 96-well glass-bottom plates (Greiner Bio-one). Each well was imaged at 519 nm and 590 nm with an IX81 Olympus inverted wide-field microscope (Olympus). Total internal reflection fluorescence imaging was performed with an Olympus IX71 inverted wide-field microscope (Olympus). ImageJ was used for image processing (NIH, USA).
Taxol-stabilized MTs were prepared and diluted as described for the Ndc80^488 binding experiments. Varying compound concentrations in 10 µl of DMSO were added to 490 µl of diluted MTs at 37°C. Following incubation (30 min, 37°C), 450 µl of each mixture was centrifuged (10 min; 30,000 rpm; 37°C) in a Beckman Optima TLX centrifuge (TLA120.1 rotor). Pellets were dissolved in 25 µl of 8 mol/l urea, and the protein content of 20 µl was compared with that from pellets formed without compound.

Cc1c(C(=O)OCC2CCCO2)[nH]c2c1C(=O)CC(c1ccco1)C2 (stereo not drawn) [compound B, 6-furan-2-yl-3-methyl-4-oxo-4,5,6,7,-tetrahydro-1H-indole-2-carboxylic acid tetrahydro-furan-2-ylmethyl ester]
Fold difference between concentration inhibiting tubulin polymerization and that needed to disassemble MTs [1]: at least 40 fold
IC50 (αβ-tubulin): 5.5 µM
Taxol-stabilized MT population depolymerized (taxol-stabilized MTs): 3%

CCSCCOC(=O)c1[nH]c2c(c1C)C(=O)C[C@@H](c1ccco1)C2 [A8]
Ability to depolymerize MTs, fold higher than that of compound B ([1]; non-stabilized MTs in vitro): 12 fold
Ability to depolymerize MTs, higher than that of nocodazole ([1]; non-stabilized MTs in vitro): 10%
Fold lower IC50 for inhibiting tubulin assembly than that of compound B (αβ-tubulin; turbidimetric, versus compound B): 4.2 fold
Depolymerization of taxol-stabilized MTs (taxol-stabilized MTs): mildly depolymerized

COC(=O)Nc1nc2ccc(C(=O)c3cccs3)cc2[nH]1 [nocodazole, reference compound]
Taxol-stabilized MT population depolymerized (taxol-stabilized MTs): 11%
